{"source": "paper PMC9715595", "about": "“Optimization of the precursor supply for an enhanced FK506 production in Streptomyces tsukubaensis” (Frontiers in Bioengineering and Biotechnology, 2022)", "key": {"[1]": {"target": "T1, PipAf (Pip; LCD from A. friuliensis) (Actinoplanes friuliensis, UniProt U5VYY1)", "T1 construct": "gene AFR_18570; full length, N-terminal His-tag (pET30 Ek/LIC), E. coli; monomer 339 residues, ~36 kDa, homodimer", "T1 sequence (U5VYY1 1-339)": "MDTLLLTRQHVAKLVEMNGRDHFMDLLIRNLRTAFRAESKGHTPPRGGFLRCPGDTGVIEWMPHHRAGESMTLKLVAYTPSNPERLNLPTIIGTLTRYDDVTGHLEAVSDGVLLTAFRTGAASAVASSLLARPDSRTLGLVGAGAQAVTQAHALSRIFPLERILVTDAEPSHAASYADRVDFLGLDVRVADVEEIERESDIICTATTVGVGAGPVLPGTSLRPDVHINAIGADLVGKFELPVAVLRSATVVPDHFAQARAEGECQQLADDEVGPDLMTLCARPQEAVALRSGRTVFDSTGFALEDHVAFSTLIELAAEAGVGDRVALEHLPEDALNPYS", "experiment": "X-ray crystal structure ([…] Å)", "type": "binding", "conditions": "crystallised with 1 mM NAD+; cofactor modelled as NADH; one NADH per monomer"}, "[2]": {"target": "T1, PipAf (Pip; LCD from A. friuliensis)", "experiment": "X-ray crystal structure ([…] Å)", "type": "binding", "conditions": "co-crystallised with 140 mM lysine and 1 mM NAD+; NADH bound; pH 8.5; active site"}, "[3]": {"target": "lysine cyclodeaminase PipAf from Actinoplanes friuliensis (Actinoplanes friuliensis)", "experiment": "SEC; gel filtration on Superdex 200, 150 mM NaCl, 25 mM HEPES pH 7.4; main peak corresponds to a dimer"}}, "data": [{"compound": "NC(=O)C1=CN([C@@H]2O[C@H](COP(=O)(O)OP(=O)(O)OC[C@H]3O[C@@H](n4cnc5c(N)ncnc54)[C@H](O)[C@@H]3O)[C@@H](O)[C@H]2O)C=CC1", "note": "[NADH]", "values": [{"measurement": "X-ray crystal structure (1.3 Å)", "setting": "[1]", "result": "One molecule NADH binds per monomer via a canonical Rossman fold"}]}, {"compound": "NCCCC[C@H](N)C(=O)O", "note": "[lysine]", "values": [{"measurement": "X-ray crystal structure (1.4 Å)", "setting": "[2]", "result": "Lysine binds in the active site running parallel to the nicotinamide ring"}]}, {"compound": "lysine cyclodeaminase PipAf from Actinoplanes friuliensis (enzyme)", "values": [{"measurement": "stoichiometry N", "setting": "[3]", "result": 2}]}]}
